From US20210048443A1, “METHOD FOR DIAGNOSING HAEMOSTASIS DISORDERS USING ACTIVATED CHARCOAL” (UNIVERSITÉ DE NAMUR ASBL, priority 2018, published 2021)

Experiments:
platelet-poor plasma [1] = experiment: Prothrombin Time (PT) assay on plasma with DOACs; type: biochemical; details: for Effect on PT of platelet-poor plasma: increasing concentrations of DOACs, no charcoal (FIG. 2b)
Protocol: (§1) For the preparation of such plasma samples, blood components of a blood sample from a patient are typically separated by two centrifugation steps, both at 2500 g for 15 min (FIG. 1). The first centrifugation step will separate the blood in solid substances (e.g. red and white blood cells) (i.e. the lower phase) and blood plasma (i.e. upper phase). Subsequently, the blood plasma is collected and submitted to a second centrifugation step, which pelletizes the residual blood cells and/or platelets. The upper phase obtained by the second centrifugation step (i.e. platelet-poor plasma) can be used for haemostatic tests. However, the platelet-poor plasma obtained by standard methods will comprise direct anticoagulants (e.g. DOACs), if the patient is treated therewith, which may interfere with several clotting times tests (Table 1).
(§2) A blood sample obtained from a subject was centrifuged at 2500 g during 15 min to separate the blood into solid substances (e.g. red and white blood cells) (i.e. lower phase) and blood plasma (i.e. upper phase).
The plasma obtained from the first (and only) centrifugation step was incubated with activated charcoal (10 mg/ml of plasma) for 5 minutes and the plasma was subsequently recovered from the activated charcoal by passing the plasma through a filter with 0.65 μm pores (FIG. 3). Passing the plasma through the filter was achieved by a short centrifugation.
The plasma sample was incubated with different concentrations of activated charcoal (i.e. 5 mg/ml, 10 mg/ml or 15 mg/ml) for 5 minutes and the plasma was subsequently recovered from the activated charcoal by passing the plasma through a filter with 0.65 μm pores and activated charcoal by a short centrifugation.

aPTT/clotting factors = experiment: aPTT/clotting factors, interference of direct oral anticoagulants; type: biochemical; details: arrow grades, key not given; all factors affected
Excerpt: (§3) Coagulation tests or assays most affected by the presence of anticoagulants in the plasma sample will be the tests that involve the clotting factor to which the coagulation inhibitor is directed, leading to false-positive or false-negative results (Table 1).

PT/clotting factors = experiment: PT/clotting factors, interference of direct oral anticoagulants; type: biochemical; details: arrow grades, key not given; all factors affected
Excerpt: as §3

platelet-poor plasma [2] = experiment: activated Partial Thromboplastin Time (aPTT) assay on plasma with DOACs; type: biochemical; details: for Effect on aPTT of platelet-poor plasma: increasing concentrations of DOACs, no charcoal (FIG. 2a)
Protocol: as §1, with “Standard tests for in vitro diagnosis of a haemostasis disorder, for example in hospital laboratories, are generally performed on plasma samples obtain from a patient. For” for “For”
as §2
The plasma obtained from the first (and only) centrifugation step was incubated with activated charcoal (10 mg/ml of plasma) for 5 minutes and the plasma was subsequently recovered from the activated charcoal by passing the plasma through a filter with 0.65 μm pores (FIG. 3). Passing the plasma through the filter was achieved by a short centrifugation. The filter with 0.65 μm pores allowed to efficiently remove the activated charcoal and residual blood cells and/or platelets, which have a larger size than 0.65 μm, from the plasma with a minimal interference with blood coagulation tests.
Plasma was obtained by centrifuging once a blood sample obtained from a subject as described in Example 2. The plasma sample was incubated with different concentrations of activated charcoal (i.e. 5 mg/ml, 10 mg/ml or 15 mg/ml) for 5 minutes and the plasma was subsequently recovered from the activated charcoal by passing the plasma through a filter with 0.65 μm pores and activated charcoal by a short centrifugation.

Antithrombin activity = Antithrombin activity assay, interference of direct oral anticoagulants; type: biochemical; details: arrow grades
Excerpt: as §3

[3] = human, in vivo
APCR = APCR (activated protein C resistance) assay, interference of direct oral anticoagulants; type: biochemical; details: for Interference with APCR: arrow grades, aPTT-based assays are mostly affected
Excerpt: as §3

Protein S activity = Protein S activity assay, interference of direct oral anticoagulants; type: biochemical; details: arrow grades; antigen-based assay unaffected, clot-based affected
Excerpt: as §3

Protein C activity = Protein C activity assay, interference of direct oral anticoagulants; type: biochemical; details: arrow grades; chromogenic and antigen-based assays unaffected, clot-based affected
Excerpt: as §3

patient's plasma = experiment: LA diagnostic assays (PTT LA, Staclot LA, DRVVT, DRVVT confirm) on patient's plasma; type: biochemical; details: platelet-poor plasma of patient treated with rivaroxaban (339 ng per ml), DRVVT confirm (FIG. 6)
Protocol: The efficacy of the method as disclosed herein was assessed in a clinical situation. […] For LA diagnosis, several in vitro diagnosis assays were performed on the patient's plasma, including Partial Thromboplastin Time-Lupus anticoagulant Screen (PTT LA), PTT LA confirm (Staclot LA), Dilute Russel Viper Venom Time screen (DRVVT) and DRVVT confirm.

Lupus anticoagulant = Lupus anticoagulant test, interference of direct oral anticoagulants; type: biochemical; details: arrow grades; false positive due to high screen/confirmation assay ratios
Excerpt: as §3

With `COc1ccc(NC(=O)c2ccc(C(=N)N(C)C)cc2)c(C(=O)Nc2ccc(Cl)cn2)c1` [Betrixaban] the “Effect on PT of platelet-poor plasma” value (platelet-poor plasma [1]) was “prolonged”, the “Interference with aPTT/clotting factors” value (aPTT/clotting factors) was “↓↓” and the “Interference with PT/clotting factors” value (PT/clotting factors) was “↓↓”. For the same compound, the “Effect on aPTT of platelet-poor plasma” value (platelet-poor plasma [2]) was “prolonged”.

In the case of `O=C(NC[C@H]1CN(c2ccc(N3CCOCC3=O)cc2)C(=O)O1)c1ccc(Cl)s1` [Rivaroxaban, 5-Chloro-N-({(5S)-2-oxo-3-[4-(3-oxo-4-morpholinyl)phenyl]-1,3-oxazolidin-5-yl}methyl)-2-thiophenecarboxamide], the “Effect of Rivaroxaban on PT after activated charcoal treatment” value (platelet-poor plasma [1]; activated charcoal 5, 10 or 15 mg/ml, 5 minutes, 0.65 μm filter, Rivaroxaban up to 1000 ng/ml (FIG. 5b)) is reported as “completely removed”, the “Effect on PT of platelet-poor plasma” value (platelet-poor plasma [1]) is reported as “prolonged” and the “Interference with aPTT/clotting factors” value (aPTT/clotting factors) is reported as “↓↓”. For the same compound, the “Interference with PT/clotting factors” value (PT/clotting factors) was “↓↓/↓↓↓”, the “Interference with Antithrombin activity” value (Antithrombin activity) was “—/↑” and the “rivaroxaban per ml of plasma in patient plasma sample” value [3] was 339 ng per ml. The “Effect of Rivaroxaban on aPTT after activated charcoal treatment” value (platelet-poor plasma [2]; activated charcoal 5, 10 or 15 mg/ml, 5 minutes, 0.65 μm filter, Rivaroxaban up to 1000 ng/ml (FIG. 5a)) was “completely removed”, the “Effect on aPTT of platelet-poor plasma” value (platelet-poor plasma [2]) was “prolonged” and the “Interference with Pefakit APCR Factor V Leiden” value (APCR; Pefakit APCR Factor V Leiden kit) was “No interference”. For the same compound, the “Interference with APCR” value (APCR) was “↑”, the “Interference with Protein S activity” value (Protein S activity) was “—/↑” and the “Interference with Protein C activity” value (Protein C activity) was “—/↑”. For the same compound, the “Clotting time in LA diagnostic assays, untreated plasma” value (patient's plasma) was “prolongs the clotting time” and the “Interference with Lupus anticoagulant” value (Lupus anticoagulant) was “↑/↑↑”.

For `COc1ccc(-n2nc(C(N)=O)c3c2C(=O)N(c2ccc(N4CCCCC4=O)cc2)CC3)cc1` [Apixaban, 1-(4-methoxyphenyl)-7-oxo-6-[4-(2-oxopiperidin-1-yl)phenyl]-4,5-dihydropyrazolo[3,4-c]pyridine-3-carboxamide], the “Effect on PT of platelet-poor plasma” value (platelet-poor plasma [1]) was “prolonged”, the “Interference with aPTT/clotting factors” value (aPTT/clotting factors) was “↓/↓↓” and the “Interference with PT/clotting factors” value (PT/clotting factors) was “↓/↓↓”. The “Interference with Antithrombin activity” value (Antithrombin activity) was “—/↑”, the “Effect on aPTT of platelet-poor plasma” value (platelet-poor plasma [2]) was “prolonged” and the “Interference with APCR” value (APCR) was “↑”. The “Interference with Protein S activity” value (Protein S activity) was “—/↑”, the “Interference with Protein C activity” value (Protein C activity) was “—/↑” and the “Interference with Lupus anticoagulant” value (Lupus anticoagulant) was “—/↑”.

With `CN1CCc2nc(C(=O)N[C@@H]3C[C@@H](C(=O)N(C)C)CC[C@@H]3NC(=O)C(=O)Nc3ccc(Cl)cn3)sc2C1` [Edoxaban, N′-(5-chloropyridin-2-yl)-N-[(1S,2R,4S)-4-(dimethylcarbamoyl)-2-[(5-methyl-6,7-dihydro-4H-[1,3]thiazolo[5,4-c]pyridine-2-carbonyl)amino]cyclohexyl]oxamide] the “Interference with aPTT/clotting factors” value (aPTT/clotting factors) was “↓/↓↓”, the “Interference with PT/clotting factors” value (PT/clotting factors) was “↓↓” and the “Interference with Antithrombin activity” value (Antithrombin activity) was “—/↑”. For the same compound, the “Effect on aPTT of platelet-poor plasma” value (platelet-poor plasma [2]) was “prolonged”, the “Interference with APCR” value (APCR) was “↑” and the “Interference with Protein S activity” value (Protein S activity) was “↑”. For the same compound, the “Interference with Lupus anticoagulant” value (Lupus anticoagulant) was “↑/↑↑”.
